The values below come from patent publication US8143226B2, “Tyrosine kinase receptor antagonists and methods of treatment for breast cancer” (The Regents of the University of California, priority 2005, dated 2012).

The target of one test is T1, HER2/neu (Rattus norvegicus, UniProt P06494).
T1 construct: expressed in transfected cells; host or cells: MCNeuA mouse mammary carcinoma cells (MMTV/neu transgene), in culture or grown as tumours in neuTg mice
Briefly: HER2/neu autophosphorylation in MCNeuA cells (western blot). The format is cell-based, mouse. The note with it: read-out: IC50, ligand-independent tyrosine phosphorylation of HER2/neu. On the procedure:
HER2/neu receptor autophosphorylation was determined in serum-starved MCNeuA or SKBR3 cells, which were collected in the basal state, due to the ligand-independent nature of HER2/neu activation. Following a one-hour incubation in serum-free media, soluble extracts of cells were prepared as above. HER2/neu autophosphorylation was determined by a western blot that employed a phosphospecific antibody, pNeu(Tyr1248) as described above.
A general note: In western blotting, separated proteins are transferred to a membrane and probed.

For a further test, the system named is MCF-7 cells. Description: Proliferation of MCF-7 cells in 10% fetal calf serum (CyQUANT). To be noted: MCF-7, 10% fetal calf serum. The format is cell-based, human. On the procedure: MCF-7 or MCNeuA cells were plated in 96 well plates (5×10^3 cells/well) in DMEM supplemented with 10% FCS. One plate was prepared for each harvest day. […] Microplate cultures were harvested on days 0, 1, 2, and 3 by inverting the microplate onto paper towels with gentle blotting to remove growth medium without disrupting adherent cells. Each plate was kept at −80° C. until the end of the experiment (day 3) when all of the plates were thawed and assayed together. After thawing, 200 μl of CyQUANT GR solution was added to each well and the plates were incubated in the dark for two to five minutes. Fluorescence was measured with a SpectraMax Gemini XS fluorescence microplate reader (Molecular Devices, Sunnyvale, Calif.) with 480-nm excitation and 520-nm emission. Proliferation index was calculated as the percent of nucleotide content versus control cells at day 0.

The target in test [1] is T2, IGF-1R (Mus musculus, UniProt Q60751).
T2 construct: from tissue; host or cells: MCNeuA tumours excised from neuTg mice
T2 sequence (Q60751 31-1373): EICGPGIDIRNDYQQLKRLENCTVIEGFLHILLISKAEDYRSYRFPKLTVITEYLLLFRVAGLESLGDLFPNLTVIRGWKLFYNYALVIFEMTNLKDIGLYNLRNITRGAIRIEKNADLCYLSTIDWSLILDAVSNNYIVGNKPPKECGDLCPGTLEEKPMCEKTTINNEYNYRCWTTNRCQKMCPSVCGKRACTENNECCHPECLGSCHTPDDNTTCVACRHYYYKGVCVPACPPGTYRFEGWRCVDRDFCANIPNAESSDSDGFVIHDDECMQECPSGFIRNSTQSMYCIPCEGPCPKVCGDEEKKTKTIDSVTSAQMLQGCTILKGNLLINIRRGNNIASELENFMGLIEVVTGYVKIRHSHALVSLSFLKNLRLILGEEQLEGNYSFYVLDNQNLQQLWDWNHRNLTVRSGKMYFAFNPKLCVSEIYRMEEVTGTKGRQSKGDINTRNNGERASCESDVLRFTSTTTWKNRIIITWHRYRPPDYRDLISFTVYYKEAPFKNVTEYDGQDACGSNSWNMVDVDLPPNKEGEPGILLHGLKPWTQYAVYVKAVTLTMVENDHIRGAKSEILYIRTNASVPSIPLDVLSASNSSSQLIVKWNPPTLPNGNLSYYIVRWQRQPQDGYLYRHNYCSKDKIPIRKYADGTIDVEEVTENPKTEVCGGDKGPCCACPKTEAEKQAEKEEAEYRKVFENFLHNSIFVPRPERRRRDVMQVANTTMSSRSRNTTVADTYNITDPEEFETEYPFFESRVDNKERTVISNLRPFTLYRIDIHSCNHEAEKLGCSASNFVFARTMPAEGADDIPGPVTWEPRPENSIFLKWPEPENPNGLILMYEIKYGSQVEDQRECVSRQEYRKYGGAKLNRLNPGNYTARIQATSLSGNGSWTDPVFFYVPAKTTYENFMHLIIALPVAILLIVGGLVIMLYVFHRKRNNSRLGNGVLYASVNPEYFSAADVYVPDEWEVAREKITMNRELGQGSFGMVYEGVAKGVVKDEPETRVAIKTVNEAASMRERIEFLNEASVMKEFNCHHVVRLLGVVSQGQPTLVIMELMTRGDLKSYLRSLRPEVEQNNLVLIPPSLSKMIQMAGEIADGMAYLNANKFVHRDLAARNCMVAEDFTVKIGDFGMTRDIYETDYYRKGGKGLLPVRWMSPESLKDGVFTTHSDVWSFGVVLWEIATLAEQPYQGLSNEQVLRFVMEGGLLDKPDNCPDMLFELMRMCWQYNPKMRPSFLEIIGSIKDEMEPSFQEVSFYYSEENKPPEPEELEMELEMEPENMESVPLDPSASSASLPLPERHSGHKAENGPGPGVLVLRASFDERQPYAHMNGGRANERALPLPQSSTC
Briefly: IGF-1R autophosphorylation in excised MCNeuA tumors (ELISA). The class given is in vivo. The note with it: 37.5 mg/kg i.p. three times a week, 16 hours after final dose, vs vehicle. The method, then: Tumors were homogenized in 50 mM HEPES, pH 7.6, 150 mM NaCl, 1 mM PMSF, 2 μM leupeptin, 2 μM Pepstatin A, and 2 mM Na3VO4, and solubilized by the addition of 1% Triton x-100. Soluble lysates were prepared as described for cell culture studies. Tyrosine phosphorylation of IGF-1R was determined by ELISA as described for MCF-7 cells. Phosphorylation of HER2/neu was determined by western blot employing the phospho-specific antibody as in the cell culture studies. The degree of phosphorylation for each receptor was normalized to total receptor protein content in the tumor samples as determined by western blotting with antibodies against the human IGF-1R and the rodent HER2/neu.

In test [2] the test system is SH-SY5Y, SHEP and Kelly neuroblastoma cells. Briefly: CyQUANT assay for neuroblastoma cell growth. The format is cell-based, human. On the procedure: CyQUANT assay for cell growth. Cells were plated on four 96-well tissue culture plates, in DMEM/10% calf serum at a density of 8000 cells/well and incubated for 24 h. In one set of experiments, the medium was switched to serum free DMEM supplemented with 1% bovine serum albumin (to provide osmotic support). IGF-I (10 nM) was added to some samples on a daily basis for up to 3 days. […] The media from one plate was immediately removed, and the plate was frozen at −80° C. This plate served as the baseline for the experiment. Single plates were frozen at 24, 48, and 72 h following addition of drugs. DNA content of each well was quantified by staining with CyQUANT according to the manufacturer's instructions and measuring CyQUANT […] with a fluorimeter. Each condition was run in triplicate, and the experiment was repeated three times.

The subject of another test is MCF-7/HER2-18 cells. Description: Tamoxifen and/or NDGA growth inhibition of MCF-7/HER2-18 cells (CyQuant). To be noted: Homo sapiens. The format is cell-based. On the procedure:
Cells were estrogen-starved for three days in DMEM containing 10% charcoal-[…]-stripped FCS (CDSS) prior to their plating in 96 well plates. Cells were plated in 100 μl of the same media, allowed to adhere overnight, and then were switched to DMEM+10% CDSS supplemented with 100 pM estrogen. […] The media and inhibitors were refreshed on day 3, the cultures were harvested on day 6, and a CyQuant assay was performed as described above.

The target in test [3] is IGF-1R (Homo sapiens, UniProt P08069). Briefly: IGF-1R phosphorylation ELISA in MCF-7/HER2-18 cells. The format is cell-based. Details: endogenous in cells; host or cells: MCF-7/HER2-18. To be noted: 3 nM IGF-I 10 min. (In an ELISA, binding on a coated surface is turned into a signal by an enzyme label.)
Sequence of IGF-1R (Homo sapiens, UniProt P08069) (P08069 31-1367): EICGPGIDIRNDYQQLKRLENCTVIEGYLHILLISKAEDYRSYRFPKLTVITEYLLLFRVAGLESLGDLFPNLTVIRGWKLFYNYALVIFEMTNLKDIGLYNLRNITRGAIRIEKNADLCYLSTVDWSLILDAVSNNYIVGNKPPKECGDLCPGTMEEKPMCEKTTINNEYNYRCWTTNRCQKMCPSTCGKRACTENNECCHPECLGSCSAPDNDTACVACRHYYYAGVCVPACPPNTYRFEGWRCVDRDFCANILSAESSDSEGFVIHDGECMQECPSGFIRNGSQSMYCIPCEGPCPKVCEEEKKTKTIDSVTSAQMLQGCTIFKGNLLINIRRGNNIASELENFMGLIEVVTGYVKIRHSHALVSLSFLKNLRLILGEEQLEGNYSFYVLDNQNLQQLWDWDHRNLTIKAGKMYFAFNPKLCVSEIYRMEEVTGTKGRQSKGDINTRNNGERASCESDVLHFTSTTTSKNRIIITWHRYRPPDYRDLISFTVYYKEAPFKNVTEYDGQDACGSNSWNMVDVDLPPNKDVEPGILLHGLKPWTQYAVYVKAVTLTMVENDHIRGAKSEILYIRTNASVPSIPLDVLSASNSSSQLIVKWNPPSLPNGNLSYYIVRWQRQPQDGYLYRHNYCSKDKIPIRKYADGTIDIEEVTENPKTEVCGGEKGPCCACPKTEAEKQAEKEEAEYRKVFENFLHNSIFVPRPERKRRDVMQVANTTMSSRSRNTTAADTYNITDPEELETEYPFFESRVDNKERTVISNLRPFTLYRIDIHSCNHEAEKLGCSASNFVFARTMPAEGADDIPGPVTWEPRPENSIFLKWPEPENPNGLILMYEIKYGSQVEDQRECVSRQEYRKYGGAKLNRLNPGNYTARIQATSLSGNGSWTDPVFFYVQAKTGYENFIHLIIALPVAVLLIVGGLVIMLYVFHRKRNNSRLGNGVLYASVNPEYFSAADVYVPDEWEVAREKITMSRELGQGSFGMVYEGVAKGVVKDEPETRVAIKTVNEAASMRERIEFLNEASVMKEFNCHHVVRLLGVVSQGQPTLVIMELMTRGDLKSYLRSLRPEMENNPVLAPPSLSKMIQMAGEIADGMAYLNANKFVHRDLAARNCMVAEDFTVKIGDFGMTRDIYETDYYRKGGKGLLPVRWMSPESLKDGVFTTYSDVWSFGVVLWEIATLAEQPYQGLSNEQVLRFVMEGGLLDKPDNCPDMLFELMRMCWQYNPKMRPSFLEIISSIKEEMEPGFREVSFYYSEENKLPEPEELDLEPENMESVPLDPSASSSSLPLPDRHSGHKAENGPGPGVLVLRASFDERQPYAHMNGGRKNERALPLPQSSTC
Protocol: RTK inhibitors were dissolved in DMSO and diluted with culture medium before being added to cells for 1.5 hour at 37° C. The final concentration of DMSO during the incubation was 0.3% . For some studies, cells were also stimulated with 3 nM IGF-I for 10 minutes at 37° C. Reactions were terminated by rapidly aspirating medium and washing cells three times with ice cold PBS. Cells were harvested and solubilized in 50 mM HEPES, 150 mM NaCl, 1% Triton X-100, 1 mM PMSF, and 2 mM vanadate for 1 hour at 4° C. Protein concentrations were determined by BCA assay (Pierce, Rockford, Ill.). […] Briefly, 10 μg lysate protein were added to triplicate wells in a 96-well plate coated with monoclonal antibody to the IGF-IR (IR3; 2 μg/ml), and incubated for 18 hours at 4° C. Plates were washed five times and then HRP-conjugated anti-phosphotyrosine antibody (0.3 μg/ml), diluted in Solution B (50 mM HEPES, pH 7.6, 150 mM NaCl, 0.05% Tween-20, 1 mM PMSF, 2 mM vanadate and 1 mg/ml bacitracin), was added for two hours at 22° C. Plates were washed five times prior to color development with TMB substrate, which was terminated with 1.0 M H3PO4. Values for receptor phosphorylation were determined by measuring absorbance at 450 nm.

T1 sequence (P06494 23-1257): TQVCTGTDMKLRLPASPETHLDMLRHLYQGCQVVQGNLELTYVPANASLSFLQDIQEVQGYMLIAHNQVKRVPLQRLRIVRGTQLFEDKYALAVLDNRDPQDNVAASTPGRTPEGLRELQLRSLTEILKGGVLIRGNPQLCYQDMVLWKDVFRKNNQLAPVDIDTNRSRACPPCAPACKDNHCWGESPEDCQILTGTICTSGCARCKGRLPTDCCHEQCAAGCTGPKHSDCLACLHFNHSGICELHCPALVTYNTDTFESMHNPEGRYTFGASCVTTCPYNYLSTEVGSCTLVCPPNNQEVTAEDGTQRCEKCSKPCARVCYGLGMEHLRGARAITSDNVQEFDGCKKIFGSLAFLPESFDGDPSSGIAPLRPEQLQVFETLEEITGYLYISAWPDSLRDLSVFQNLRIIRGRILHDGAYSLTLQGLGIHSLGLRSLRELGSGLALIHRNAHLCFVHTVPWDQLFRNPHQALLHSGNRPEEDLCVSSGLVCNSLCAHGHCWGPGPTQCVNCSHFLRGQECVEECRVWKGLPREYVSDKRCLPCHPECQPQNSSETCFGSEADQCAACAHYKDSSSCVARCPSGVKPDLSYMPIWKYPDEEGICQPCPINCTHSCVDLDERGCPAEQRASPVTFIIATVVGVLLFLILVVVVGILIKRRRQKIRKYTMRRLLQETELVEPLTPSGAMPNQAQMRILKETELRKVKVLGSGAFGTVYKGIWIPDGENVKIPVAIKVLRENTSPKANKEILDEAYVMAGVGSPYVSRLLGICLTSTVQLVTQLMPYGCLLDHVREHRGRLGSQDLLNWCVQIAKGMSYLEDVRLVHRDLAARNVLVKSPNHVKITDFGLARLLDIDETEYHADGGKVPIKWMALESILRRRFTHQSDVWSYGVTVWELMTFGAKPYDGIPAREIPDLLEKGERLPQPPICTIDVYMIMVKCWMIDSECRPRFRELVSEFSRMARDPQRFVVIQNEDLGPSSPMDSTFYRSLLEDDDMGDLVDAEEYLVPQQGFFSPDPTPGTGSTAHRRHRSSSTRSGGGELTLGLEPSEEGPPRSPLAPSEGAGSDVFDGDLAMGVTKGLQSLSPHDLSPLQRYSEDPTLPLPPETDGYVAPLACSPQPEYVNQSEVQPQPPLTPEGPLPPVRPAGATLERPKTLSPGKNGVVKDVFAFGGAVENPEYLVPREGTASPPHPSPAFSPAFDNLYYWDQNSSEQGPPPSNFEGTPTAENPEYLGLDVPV

Take `CC(Cc1ccc(O)c(O)c1)C(C)Cc1ccc(O)c(O)c1` (stereo not shown) [NDGA, nordihydroguaiaretic acid]: the IC50 at HER2/neu amounted to 15 ± 4 µM. Also, in the test on MCF-7 cells (60 μM, within 24 hours), the cell number entry was “dramatically reduced”. The “lowest concentration significantly reducing rate of proliferation” value in the test on MCF-7 cells (up to 3 days) worked out at 15 µM. Besides, the “IGF-1R autophosphorylation in tumors” value at IGF-1R [1] is given as “reduced”. Further, the “proliferation in serum-free media with 10 nM IGF-I” value in test [2] (SH-SY5Y and Kelly cells, up to 72 h) is “inhibited proliferation”. Further, the “proliferation in medium containing 10% serum” value in test [2] (SH-SY5Y and SHEP cells, up to 72 h) is given as “inhibited the proliferation”. The “dose that completely blocks neuroblastoma growth in vitro” value in test [2] (serum and serum-free conditions, several days) was 15 to 30 µM. For the same molecule, in the test with MCF-7/HER2-18 cells, at 10 µM the inhibition was 9% and the inhibition (in general, the drop in the measured response relative to a control, in per cent) at 15 µM came out at 38%. The “IGF-1 stimulated phosphorylation of the IGF-1R” value on IGF-1R [3] is listed as “strongly inhibited”.
